Peptide text beside a SMILES is read from it.
Assays:
hKv1.1 channel = experiment: whole-cell patch clamp, hKv1.1 channel currents; type: cell-based, human; conditions: 1 µM, n ≥ 3
Text: (§1) The source of potassium channel plasmids was described in detail in previous articles. The cDNA encoding hKv1.1 channel, hKv1.3 channel, and rKv4.3 channel were subcloned into the vector of pCDNA3.1(+). The cDNA encoding hKv1.2 channel, hKv1.6 channel, hKv3.2 channel, hERG channel, and mKv4.1 channel were subcloned into the vector of pIRES2-EGFP. The cDNA encoding rKv4.2 was subcloned into the vector of pEGFP-N1.
(§2) DMEM (Gibco, Pittsburgh, PA, USA) with 10% fetal bovine serum and 1% penicillin/streptomycin was applied to culture HEK293T cells in an incubator with 5% CO2 at 37 °C. According to the manufacturer’s instructions, ExFect Transfection Reagent (Vazyme, Nanjing, China) was used to co-transfect the plasmids of pEGFP-N1 and potassium channels into HEK293T cells. Fluorescence-positive cells were selected for electrophysiological experiments after transfection for 12 h to 24 h.
(§3) Whole-cell channel currents were measured and recorded by an EPC-10 patch-clamp amplifier controlled by PatchMaster (HEKA Elektronik, Lambrecht, Germany). The internal patch pipette solution and bath solution were prepared according to the protocol in previously published references. […] The currents of different potassium channels were generated and recorded following the respective protocols according to previously published references. […]

hKv1.2 channel = target: T1, hKv1.2 channel (Homo sapiens, UniProt P16389); experiment: whole-cell patch clamp, hKv1.2 channel currents; type: cell-based; conditions: for IC50: peak tail current, Hill equation fit
T1 construct: expressed in transfected cells
T1 sequence (P16389 whole entry): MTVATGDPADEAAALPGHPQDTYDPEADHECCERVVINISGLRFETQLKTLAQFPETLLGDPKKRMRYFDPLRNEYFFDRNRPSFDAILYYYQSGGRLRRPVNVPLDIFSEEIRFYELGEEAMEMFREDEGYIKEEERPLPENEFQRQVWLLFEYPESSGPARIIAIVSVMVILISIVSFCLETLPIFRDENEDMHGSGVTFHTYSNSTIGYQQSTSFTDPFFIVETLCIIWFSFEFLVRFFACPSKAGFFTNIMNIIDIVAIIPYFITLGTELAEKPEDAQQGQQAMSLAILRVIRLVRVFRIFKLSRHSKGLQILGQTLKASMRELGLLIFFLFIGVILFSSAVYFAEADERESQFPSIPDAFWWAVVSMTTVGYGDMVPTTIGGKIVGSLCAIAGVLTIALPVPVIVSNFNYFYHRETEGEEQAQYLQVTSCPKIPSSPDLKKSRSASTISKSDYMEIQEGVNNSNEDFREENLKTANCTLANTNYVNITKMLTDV
Text: as §1, §2
(§4) Whole-cell channel currents were measured and recorded by an EPC-10 patch-clamp amplifier controlled by PatchMaster (HEKA Elektronik, Lambrecht, Germany). The internal patch pipette solution and bath solution were prepared according to the protocol in previously published references. Bath solution with 0.01% BSA (Gibco, Pittsburgh, PA, USA) was used to dissolve peptides for electrophysiological testing. The external recording bath solution was exchanged by the MPS-2 multichannel microperfusion system (INBIO Inc., Wuhan, China). The currents of different potassium channels were generated and recorded following the respective protocols according to previously published references. The results of the electrophysiological experiment are presented as the mean ± SE, and more than three cells from each sample were examined (n ≥ 3).
(§5) The software of Clampfit (Molecular Devices, Sunnyvale, CA, USA) and Sigmaplot (IBM SPSS, Chicago, IL, USA) were applied to analyze the electrophysiological data. In order to obtain IC50 values, the concentrations of peptides and currents of potassium channels were used to fit the modified Hill equation for dose–response relationships: Ipeptide/Icontrol = 1/[1 + Cpeptide/IC50], in which Ipeptide and Icontrol represent the peak tail current of potassium channels in the presence and absence of peptide, Cpeptide represents the concentration of peptides and IC50 represents the half-maximum inhibition concentration. The results are presented as the mean ± SE.

hKv1.3 channel = target: T2, hKv1.3 channel (Homo sapiens, UniProt P22001); experiment: whole-cell patch clamp, hKv1.3 channel currents; type: cell-based; conditions: for IC50: peak tail current, Hill equation fit
T2 construct: expressed in transfected cells
T2 sequence (P22001 whole entry): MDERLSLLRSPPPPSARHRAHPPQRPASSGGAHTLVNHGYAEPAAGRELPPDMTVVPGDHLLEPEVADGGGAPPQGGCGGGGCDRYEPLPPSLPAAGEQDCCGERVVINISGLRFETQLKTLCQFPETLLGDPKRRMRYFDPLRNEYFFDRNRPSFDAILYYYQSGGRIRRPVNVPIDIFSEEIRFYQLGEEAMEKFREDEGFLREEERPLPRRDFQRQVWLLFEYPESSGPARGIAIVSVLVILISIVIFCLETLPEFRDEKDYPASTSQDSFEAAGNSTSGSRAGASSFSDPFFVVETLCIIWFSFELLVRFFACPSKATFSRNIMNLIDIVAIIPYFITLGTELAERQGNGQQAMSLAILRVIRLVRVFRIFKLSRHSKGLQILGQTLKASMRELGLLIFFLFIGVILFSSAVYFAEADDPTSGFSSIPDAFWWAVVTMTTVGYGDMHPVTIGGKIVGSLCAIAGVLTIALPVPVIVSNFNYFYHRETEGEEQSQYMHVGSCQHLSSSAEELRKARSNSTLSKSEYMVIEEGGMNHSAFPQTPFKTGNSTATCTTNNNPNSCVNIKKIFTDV
Text: as §1, §2, §4, §5

hKv1.6 channel = experiment: whole-cell patch clamp, hKv1.6 channel currents; type: cell-based, human; conditions: 1 µM, transiently transfected HEK293 cells, mean ± SE, n ≥ 3
Text: as §1, §2, §3

hKv3.2 channel = experiment: whole-cell patch clamp, hKv3.2 channel currents; type: cell-based, human; conditions: 1 µM, transiently transfected HEK293 cells, mean ± SE, n ≥ 3
Text: as §1, §2, §3

rKv4.1 channel = experiment: whole-cell patch clamp, rKv4.1 channel currents; type: cell-based, rat; conditions: 1 µM, transiently transfected HEK293 cells, mean ± SE, n ≥ 3
rKv4.2 channel = experiment: whole-cell patch clamp, rKv4.2 channel currents; type: cell-based, rat; conditions: 1 µM, transiently transfected HEK293 cells, mean ± SE, n ≥ 3
Text: as §1, §2, §3

mKv4.3 channel = experiment: whole-cell patch clamp, mKv4.3 channel currents; type: cell-based, mouse; conditions: 1 µM, transiently transfected HEK293 cells, mean ± SE, n ≥ 3
hERG channel = experiment: in vitro; type: cell-based; conditions: human, whole-cell patch clamp, transiently transfected HEK293 cells, mean ± SE, n ≥ 3, read-out: inhibition of hERG channel currents
Text: as §1, §2, §3

[1] = 1 µM, transiently transfected HEK293 cells, mean ± SE, n ≥ 3

SMILES	effect on hKv1.1 channel current (in words) (hKv1.1 channel)	inhibition of hKv1.2 channel current (in words) (hKv1.2 channel; 1 µM)	IC50 (hKv1.2 channel; mean ± SE, n ≥ 3) [nM]	inhibition of hKv1.3 channel current (in words) (hKv1.3 channel; 1 µM)	IC50 (hKv1.3 channel; mean ± SE, n ≥ 3) [nM]	inhibition of hKv1.1 channel currents (hKv1.1 channel; transiently transfected HEK293 cells, mean ± SE) [%]	inhibition at 0.008 µM (hKv1.2 channel; 8 nM, mean ± SE, n ≥ 3, read-out: inhibition rate of hKv1.2 channel current) [%]	inhibition at 0.04 µM (hKv1.2 channel; 40 nM, mean ± SE, n ≥ 3, read-out: inhibition rate of hKv1.2 channel current) [%]	inhibition at 0.2 µM (hKv1.2 channel; 200 nM, mean ± SE, n ≥ 3, read-out: inhibition rate of hKv1.2 channel current) [%]	inhibition at 1 µM (hKv1.2 channel; [1]) [%]	inhibition at 0.008 µM (hKv1.3 channel; 8 nM, mean ± SE, n ≥ 3, read-out: inhibition rate of hKv1.3 channel current) [%]	inhibition at 0.04 µM (hKv1.3 channel; 40 nM, mean ± SE, n ≥ 3, read-out: inhibition rate of hKv1.3 channel current) [%]	inhibition at 0.2 µM (hKv1.3 channel; 200 nM, mean ± SE, n ≥ 3, read-out: inhibition rate of hKv1.3 channel current) [%]	inhibition at 1 µM (hKv1.3 channel; [1]) [%]	inhibition of hKv1.6 channel currents (hKv1.6 channel) [%]	inhibition of hKv3.2 channel currents (hKv3.2 channel) [%]	inhibition of rKv4.1 channel currents (rKv4.1 channel) [%]	inhibition of rKv4.2 channel currents (rKv4.2 channel) [%]	inhibition of mKv4.3 channel currents (mKv4.3 channel) [%]	inhibition at 1 µM (hERG channel) [%]
CSCC[C@@H]1NC(=O)[C@@H]2CSSC[C@H](NC(=O)[C@@H](N)CCCCN)C(=O)N[C@@H]([C@@H](C)O)C(=O)N[C@@H](C)C(=O)N[C@@H](CO)C(=O)N[C@@H](CCCCN)C(=O)N[C@@H](CCC(N)=O)C(=O)N[C@H]3CSSC[C@H](NC(=O)[C@H](CCCCN)NC(=O)CNC(=O)[C@H](CC(N)=O)NC1=O)C(=O)N[C@@H](CCCNC(=N)N)C(=O)N[C@H](C(=O)N[C@@H](Cc1ccc(O)cc1)C(=O)O)CSSC[C@H](NC(=O)[C@H](C(C)C)NC(=O)[C@@H]1CCCN1C(=O)[C@H](Cc1c[nH]c4ccccc14)NC3=O)C(=O)N[C@@H](CCCCN)C(=O)N[C@@H](CCC(N)=O)C(=O)N[C@@H](CCSC)C(=O)N[C@@H](Cc1ccccc1)C(=O)NCC(=O)N[C@@H](CCCCN)C(=O)N1CCC[C@H]1C(=O)N[C@@H](CC(N)=O)C(=O)NCC(=O)N[C@@H](CCCCN)C(=O)N2 [rBmTX4-P1] (HELM PEPTIDE1{K.C.T.A.S.K.Q.C.W.P.V.C.K.Q.M.F.G.K.P.N.G.K.C.M.N.G.K.C.R.C.Y}$PEPTIDE1,PEPTIDE1,2:R3-23:R3|PEPTIDE1,PEPTIDE1,8:R3-28:R3|PEPTIDE1,PEPTIDE1,12:R3-30:R3$$$V2.0; C-terminus assumed; bridges inferred)	hardly inhibited the hKv1.1 channel current	inhibited the currents of the hKv1.2 and hKv1.3 channels with high affinities	45.7 ± 9.2	inhibited the currents of the hKv1.2 and hKv1.3 channels with high affinities	247 ± 47.9															
CSCC[C@@H]1NC(=O)[C@@H]2CSSC[C@H](NC(=O)[C@@H](N)CCCCN)C(=O)N[C@@H]([C@@H](C)O)C(=O)N[C@@H](C)C(=O)N[C@@H](CO)C(=O)N[C@@H](CCCCN)C(=O)N[C@@H](CCC(N)=O)C(=O)N[C@H]3CSSC[C@H](NC(=O)[C@H](CCCCN)NC(=O)CNC(=O)[C@H](CC(N)=O)NC1=O)C(=O)N[C@@H](CCCNC(=N)N)C(=O)N[C@H](C(=O)N[C@@H](Cc1ccc(O)cc1)C(=O)O)CSSC[C@H](NC(=O)[C@H](C(C)C)NC(=O)[C@@H]1CCCN1C(=O)[C@H](Cc1c[nH]c4ccccc14)NC3=O)C(=O)N[C@@H](CCCCN)C(=O)N[C@@H](CCC(N)=O)C(=O)N[C@@H](CCSC)C(=O)N[C@@H](Cc1ccccc1)C(=O)NCC(=O)N[C@@H](CCCCN)C(=O)N1CCC[C@H]1C(=O)N[C@@H](CC(N)=O)C(=O)NCC(=O)N[C@@H](CCCCN)C(=O)N2 [sBmTX4-P1] (HELM PEPTIDE1{K.C.T.A.S.K.Q.C.W.P.V.C.K.Q.M.F.G.K.P.N.G.K.C.M.N.G.K.C.R.C.Y}$PEPTIDE1,PEPTIDE1,2:R3-23:R3|PEPTIDE1,PEPTIDE1,8:R3-28:R3|PEPTIDE1,PEPTIDE1,12:R3-30:R3$$$V2.0; N-terminus and C-terminus assumed; bridges inferred)			74.7 ± 7		124 ± 26.7	5.9 ± 1.5	13.5 ± 1.6	40.2 ± 3.7	66 ± 6.3	88.4 ± 2	13.6 ± 3.7	32.6 ± 5.3	60.7 ± 2.9	73.1 ± 2.8	18.3 ± 4.3	5.3 ± 3.1	7.0 ± 1.8	6.9 ± 4.6	6.8 ± 2.8	35.7 ± 2.1

— PMC10223454, “Functional Characterization of a New Degradation Peptide BmTX4-P1 from Traditional Chinese Scorpion Medicinal Material” (Toxins, 2023)
